# Assay results reported in patent US20240327800A1, “HIGH THROUGHPUT LOCALIZED PASSIVE DIFFUSION DEVICE FOR PATTERNING ORGANOIDS” (University of Massachusetts, priority 2023, published 2024).
# Tested on: hESCs (H9) derived forebrain organoid
# Assay: Dorsal-ventral patterning of forebrain organoids with a gradient of Shh agonist (immunostaining)
# Format: cell-based, human
# Protocol: The cells were sub-passaged every 3 to 4 days by 80% to 90% confluence. Before cell culturing, the device 500 was incubated in 2% pluronic for one hour, rinsed with 1×DPBS three times, and dried out before adding the gelatin-transglutaminase mixture to layer 3. Before cell seeding, the medium and medium chambers were incubated at room temperature with E8 basal for up to 24 hrs. The gelatin in the microwells was aspirated after being soaked in the E8 basal before cell seeding.
# Cells were seeded using E8 medium supplemented with 10 uM Rock inhibitor (Y27). 100, 000 cells suspended in 5 μl medium were then pipetted into each microwell. Then, the device 500 was centrifuged at 200 g for 2 mins. Then, another 1 ml and 500 μl of medium were added into the medium chamber and the morphogen chamber, respectively. The device 500 was placed into a 37 C.° incubator overnight to generate a cell aggregate. […] It was observed that the EBs were immobilized by growing them around the sutures. To grow EBs around the sutures, a high density of hESCs was seeded directly into the microwell. The size of the EB spheroid at day 8, around 500 μm, was consistent with the diameter of the EB at day 1. The size of EB spheroid could be grown by changing the E8 medium and adding 1% PS daily during continued culturing.
# Essential 6 (E6) medium supplemented with 1% PS, 5 μM dorsomorphin (DM), and 10 μM SB-431542 for both medium and morphogen chambers for six days for dual SMAD inhibition. […] To generate a D-V patterned organoid, 5 μM of purmorphamine and 5 μM of IWP-2 were supplemented to the basal medium in the morphogen chamber for five days between day 14 to day 30. To generate cortical organoids, the basal medium was used for both the medium and the morphogen chamber. To generate subpallial organoids, purmorphamine and IWP-2 supplement medium were used for both chambers. The medium was changed daily until day 30.
# The organoids were then rinsed with 1×DPBS two times for 10 mins, then fixed by incubating in 4% paraformaldehyde (Electron Microscopy Sciences) at 4 C.° overnight. […]
smiles,measurement,setting,value
c1ccc2c(Oc3nc(Nc4ccc(N5CCOCC5)cc4)c4ncn(C5CCCCC5)c4n3)cccc2c1 [purmorphamine],D-V patterning,Uniform Pur control: purmorphamine in both medium chamber and morphogen chamber (no gradient),No D-V patterning was established
same,NKX2.1 marker expression (ventral fate differentiation),"gradient group, 5 μM purmorphamine in morphogen chamber (with 5 μM IWP-2), five continuous days between day 14 and day 30, bottom half of organoid",higher expression level of NKX2.1 makers was established at the bottom half of the organoid
same,PAX6 expression (dorsal fate differentiation),"gradient group, 5 μM purmorphamine in morphogen chamber, five continuous days between day 14 and day 30, top half of organoid",dominant expression of PAX6 was observed
